From patent US9227971B2, “Pyrazolo[1,5-a]pyrimidine compounds as mTOR inhibitors” (Merck Sharp & Dohme Corp., priority 2010, dated 2016) come the findings set out here.

Where two headings read alike, the source gives them in different places.

Assay [1] concerns phosphorylated AKT Ser473 (pAKT S473), mTORC2 activity, PC3 cells. Kind of assay: mTOR target engagement assay, immunofluorescent cell-based, pAKT S473 readout (mTORC2 activity). In short, it runs like this: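 After blocking, cells were stained overnight at 4 °C with anti-pAKT S473 antibody, then a fluorescent secondary; inhibition was read as reduced fluorescence intensity.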

For assay [2], the system named is phosphorylated 4E-BP1 Thr37/46 (p4E-BP1 Thr37/46), mTORC1 activity, PC3 cells. As to the kind of experiment: mTOR target engagement assay, immunofluorescent cell-based, p4E-BP1 Thr37/46 readout (mTORC1 activity). To be noted: read-out: p4E-BP1 Thr37/46 IC50. In outline: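 PTEN-mutant PC3 prostate cells were treated with serially diluted compound in 5% FBS F12 medium (0.25% DMSO) for ninety minutes at 37° C, glyoxal-fixed, then immunostained overnight at 4° C for p4E-BP1 Thr37/46 with an Alexa Fluor 488 secondary. IC50 came from four-parameter fits of fluorescence, DMSO-only wells defining 100%.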

[3] abbreviates: Homo sapiens, PC-3, Table 3-1, PC3 cells.
Where [4] appears, read: Homo sapiens, PC-3, Table 6-1, PC3 cells.
Setting [5] is: Homo sapiens, PC-3, Table 7-2, PC3 cells.
Setting [6] is: Homo sapiens, PC-3, PC3 cells, compound treatment ninety minutes at 37° C.

Regarding `COc1ccc(-c2ncc(-c3cnn4c(N)c(S(C)(=O)=O)c([C@@H]5C[C@H]6CC[C@@H](C5)N6C(=O)CO)nc34)cn2)c(F)c1F` [Compound 3.149, 1-((1R,3s,5S)-3-(7-amino-3-(2-(2,3-difluoro-4-methoxyphenyl)pyrimidin-5-yl)-6-(methylsulfonyl)pyrazolo[1,5-a]pyrimidin-5-yl)-8-azabicyclo[3.2.1]octan-8-yl)-2-hydroxyethanone], the IC50 in assay [1] (setting [3]) was 1000 to 10000 nM; in assay [2] (setting [3]) it was 100 to 1000 nM.

As for `Nc1cc([C@]2(O)C[C@H]3CC[C@@H](C2)N3C(=O)c2nnc[nH]2)nc2c(-c3ccc(-c4ccccc4)nc3)cnn12` [Compound 8.23, ((1R,3r,5S)-3-(7-amino-3-(6-phenylpyridin-3-yl)pyrazolo[1,5-a]pyrimidin-5-yl)-3-hydroxy-8-azabicyclo[3.2.1]octan-8-yl)(4H-1,2,4-triazol-3-yl)methanone], the IC50 in assay [1] (Homo sapiens, PC-3, PC3 cells) lay within 1000 to 10000 nM; in assay [2] (Homo sapiens, PC-3, PC3 cells) it was 1000 to 10000 nM.

Consider `CS(=O)(=O)c1c([C@@H]2C[C@H]3CC[C@@H](C2)N3C(=O)c2cn[nH]c2)nc2c(-c3ccc(-c4ccccc4)nc3)cnn2c1N` [Compound 3.83, ((1R,3s,5S)-3-(7-amino-6-(methylsulfonyl)-3-(6-phenylpyridin-3-yl)pyrazolo[1,5-a]pyrimidin-5-yl)-8-azabicyclo[3.2.1]octan-8-yl)(1H-pyrazol-4-yl)methanone], for which the IC50 in assay [1] (setting [3]) and in assay [2] (setting [3]) was 1 to 100 nM throughout.

For `Cc1cnc(-c2ccc(-c3cnn4c(N)c(S(C)(=O)=O)c([C@H]5CC6CC[C@H](C5)N6C(=O)c5cn[nH]n5)nc34)cn2)s1` [Compound 3.181, ((1R,3s,5S)-3-(7-amino-6-(methylsulfonyl)-3-(6-(5-methylthiazol-2-yl)pyridin-3-yl)pyrazolo[1,5-a]pyrimidin-5-yl)-8-azabicyclo[3.2.1]octan-8-yl)(2H-1,2,3-triazol-4-yl)methanone], the IC50 in assay [1] (setting [3]) was in the range of 100 to 1000 nM; in assay [2] (setting [3]), 1 to 100 nM.

Take `CC(=O)c1c([C@@H]2C[C@H]3CC[C@@H](C2)N3C(=O)C2CCCO2)nc2c(-c3ccc(-c4ncc[nH]4)nc3)cnn2c1N` (stereo partly drawn) [Compound 6.19, 1-(3-(6-(1H-imidazol-2-yl)pyridin-3-yl)-7-amino-5-((1R,3s,5S)-8-(tetrahydrofuran-2-carbonyl)-8-azabicyclo[3.2.1]octan-3-yl)pyrazolo[1,5-a]pyrimidin-6-yl)ethanone]: the IC50 in assay [1] (setting [4]) was in the range of 1 to 100 nM; in assay [2] (setting [4]), 100 to 1000 nM.

In the case of `CCCC(O)c1ccc(-c2cnn3c(N)c(S(C)(=O)=O)c([C@@H]4C[C@H]5CC[C@@H](C4)N5C(=O)c4nnc[nH]4)nc23)cn1` (stereo partly drawn) [Compound 7.25, ((1R,3s,5S)-3-(7-amino-3-(6-(1-hydroxybutyl)pyridin-3-yl)-6-(methylsulfonyl)pyrazolo[1,5-a]pyrimidin-5-yl)-8-azabicyclo[3.2.1]octan-8-yl)(4H-1,2,4-triazol-3-yl)methanone], the IC50 in assay [1] (setting [5]) and in assay [2] (setting [5]) was 1000 to 10000 nM throughout.

On to “1-((1R,3s,5S)-3-(7-amino-3-(6-(4-methoxy-(D3)-phenyl)pyridin-3-yl)-6-(methylsulfonyl)pyrazolo[1,5-a]pyrimidin-5-yl)-8-azabicyclo[3.2.1]octan-8-yl)-2-hydroxyethanone [Compound 3.67]”, for which the IC50 in assay [1] (Table 3-1, PC3 cells) was in the range of 1 to 100 nM; in assay [2] (Table 3-1, PC3 cells) it was 100 to 1000 nM.

As for `Nc1c(C2CC2)c([C@@H]2C[C@H]3CC[C@@H](C2)N3S(=O)(=O)c2nnc[nH]2)nc2c(-c3ccc(-c4ccccc4)nc3)cnn12` [Compound 4.3, 5-((1R,3a,5S)-8-(4H-1,2,4-triazol-3-ylsulfonyl)-8-azabicyclo[3.2.1]octan-3-yl)-6-cyclopropyl-3-(6-phenylpyridin-3-yl)pyrazolo[1,5-a]pyrimidin-7-amine], the IC50 in assay [1] (setting [6]) and in assay [2] (setting [6]) was 1000 to 10000 nM each time.

On to `CC(=O)c1c([C@@H]2C[C@H]3CC[C@@H](C2)N3C(=O)c2cnn[nH]2)nc2c(-c3ccc(C(C)(C)O)nc3)cnn2c1N` [Compound 7.10, 1-(5-((1R,3s,5S)-8-(1H-1,2,3-triazole-5-carbonyl)-8-azabicyclo[3.2.1]octan-3-yl)-7-amino-3-(6-(2-hydroxypropan-2-yl)pyridin-3-yl)pyrazolo[1,5-a]pyrimidin-6-yl)ethanone], for which the IC50 in assay [1] (setting [6]) and in assay [2] (setting [6]) was 100 to 1000 nM in each case.

Turning to `Nc1c(C2CC2)c([C@@H]2C[C@H]3CC[C@@H](C2)N3C(=O)NO)nc2c(-c3ccc(-c4ccccc4)nc3)cnn12` [Compound 4.32, (1R,3s,5S)-3-(7-amino-6-cyclopropyl-3-(6-phenylpyridin-3-yl)pyrazolo[1,5-a]pyrimidin-5-yl)-N-hydroxy-8-azabicyclo[3.2.1]octane-8-carboxamide], the IC50 in assay [1] (setting [6]) and in assay [2] (setting [6]) was 1 to 100 nM throughout.

`CC(=O)c1c([C@@H]2C[C@H]3CC[C@@H](C2)N3C(=O)c2nnc[nH]2)nc2c(-c3ccc(-c4ncc[nH]4)cc3)cnn2c1N` [Compound 6.43, 1-(3-(4-(1H-imidazol-2-yl)phenyl)-5-((1R,3s,5S)-8-(4H-1,2,4-triazole-3-carbonyl)-8-azabicyclo[3.2.1]octan-3-yl)-7-aminopyrazolo[1,5-a]pyrimidin-6-yl)ethanone]: the IC50 in assay [1] (setting [4]) and in assay [2] (setting [4]) was 1 to 100 nM each time.

In the case of `CC(=O)c1c([C@@H]2C[C@H]3CC[C@@H](C2)N3C(=O)c2nnc[nH]2)nc2c(-c3cnc(C(C)(C)O)c(Cl)c3)cnn2c1N` [Compound 1.1.181, 1-(5-((1R,3s,5S)-8-(4H-1,2,4-triazole-3-carbonyl)-8-azabicyclo[3.2.1]octan-3-yl)-7-amino-3-(5-chloro-6-(2-hydroxypropan-2-yl)pyridin-3-yl)pyrazolo[1,5-a]pyrimidin-6-yl)ethanone], the IC50 in assay [1] (setting [6]) and in assay [2] (setting [6]) was 1 to 100 nM throughout.

As to `CC(=O)c1c([C@@H]2C[C@H]3CC[C@@H](C2)N3C(=O)c2nnc[nH]2)nc2c(-c3ccc(N)nc3)cnn2c1N` [Compound 8.48, 1-(5-((1R,3s,5S)-8-(4H-1,2,4-triazole-3-carbonyl)-8-azabicyclo[3.2.1]octan-3-yl)-7-amino-3-(6-aminopyridin-3-yl)pyrazolo[1,5-a]pyrimidin-6-yl)ethanone], the IC50 fell in the range of 1 to 100 nM in assay [1] (Homo sapiens, PC-3, PC3 cells) and 1 to 100 nM in assay [2] (Homo sapiens, PC-3, PC3 cells).

In the case of `Cc1csc(-c2ccc(-c3cnn4c(N)c(S(C)(=O)=O)c([C@@H]5C[C@H]6CC[C@@H](C5)N6C(=O)c5nnc(C)[nH]5)nc34)cn2)n1` [Compound 3.191, ((1R,3s,5S)-3-(7-amino-6-(methylsulfonyl)-3-(6-(4-methylthiazol-2-yl)pyridin-3-yl)pyrazolo[1,5-a]pyrimidin-5-yl)-8-azabicyclo[3.2.1]octan-8-yl)(5-methyl-4H-1,2,4-triazol-3-yl)methanone], the IC50 in assay [1] (setting [3]) and in assay [2] (setting [3]) was 100 to 1000 nM throughout.

For the compound `CS(=O)(=O)c1c([C@H]2CC3CC[C@H](C2)N3C(=O)c2cnn[nH]2)nc2c(-c3ccc(-c4c(F)cccc4F)nc3)cnn2c1N` [Compound 3.173, ((1R,3s,5S)-3-(7-amino-3-(6-(2,6-difluorophenyl)pyridin-3-yl)-6-(methylsulfonyl)pyrazolo[1,5-a]pyrimidin-5-yl)-8-azabicyclo[3.2.1]octan-8-yl)(1H-1,2,3-triazol-5-yl)methanone], the IC50 in assay [1] (setting [3]) and in assay [2] (setting [3]) was 100 to 1000 nM in each case.

In the case of `CC(=O)c1c([C@@H]2C[C@H]3CC[C@@H](C2)N3C(=O)c2nnc[nH]2)nc2c(-c3cnc(-c4cc[nH]n4)c(F)c3)cnn2c1N` [Compound 1.1.110, 1-(5-((1R,3s,5S)-8-(4H-1,2,4-triazole-3-carbonyl)-8-azabicyclo[3.2.1]octan-3-yl)-7-amino-3-(5-fluoro-6-(1H-pyrazol-3-yl)pyridin-3-yl)pyrazolo[1,5-a]pyrimidin-6-yl)ethanone], the IC50 in assay [1] (setting [6]) and in assay [2] (setting [6]) was 100 to 1000 nM throughout.

As to `CC(=O)c1c([C@@H]2C[C@H]3CC[C@@H](C2)N3C(=O)CO)nc2c(-c3ccc(-c4ccccc4)nc3)cnn2c1N` [Compound 1.1.5, 1-((1R,3s,5S)-3-(6-acetyl-7-amino-3-(6-phenylpyridin-3-yl)pyrazolo[1,5-a]pyrimidin-5-yl)-8-azabicyclo[3.2.1]octan-8-yl)-2-hydroxyethanone], the IC50 in assay [1] (setting [6]) and in assay [2] (setting [6]) was 1 to 100 nM each time.

As to `CC(=O)c1c([C@@H]2C[C@H]3CC[C@@H](C2)N3C(=O)c2cc[nH]n2)nc2c(-c3ccc(C(C)(C)O)nc3)cnn2c1N` [Compound 7.11, 1-(5-((1R,3s,5S)-8-(1H-pyrazole-3-carbonyl)-8-azabicyclo[3.2.1]octan-3-yl)-7-amino-3-(6-(2-hydroxypropan-2-yl)pyridin-3-yl)pyrazolo[1,5-a]pyrimidin-6-yl)ethanone], the figures for the IC50 in assay [1] (setting [6]) and in assay [2] (setting [6]) were 1 to 100 nM and 100 to 1000 nM, respectively.

Take `CS(=O)(=O)c1c([C@@H]2C[C@H]3CC[C@@H](C2)N3C(N)=O)nc2c(-c3ccc(-c4ccccc4F)nc3)cnn2c1N` [Compound 3.131, (1R,3s,5S)-3-(7-amino-3-(6-(2-fluorophenyl)pyridin-3-yl)-6-(methylsulfonyl)pyrazolo[1,5-a]pyrimidin-5-yl)-8-azabicyclo[3.2.1]octane-8-carboxamide]: the IC50 in assay [1] (setting [3]) and in assay [2] (setting [3]) was 1 to 100 nM each time.
